According to PMC6268294, “Synthesis of Chalcones with Anticancer Activities” (Molecules, 2012):
Converted amounts (≈) assume the structure as drawn. Read-outs that look alike come from different tables or passages of the source.

Legend:
[1] = tested on: human lung adenocarcinoma cell line A549; assay: MTT cell viability assay, A549; assay type: cell-based; conditions: 24 h treatment
Method: (§1) A549, PC3, MCF-7, HT-29, WRL68 and MCF-7 cells were obtained from the ATTC (Rockville, MD, USA) and grown in RPMI-1640 medium, 10% fetal bovine serum (FBS) and 1% pen-strep, in humidified conditions at 5% CO2 and 37 °C. The different cell lines mentioned above were used to determine the inhibitory effects of compounds on cell growth using the MTT assay. This colorimetric assay is based on the conversion of the yellow tetrazolium bromide (MTT) to a purple formazan derivative by mitochondrial succinate dehydrogenase in viable cells. Cells were seeded in 96-well plate and incubated for 24 h at 37 °C with 5% CO2 saturation. After incubation, the cells were treated with different concentration of compounds and incubated for another 24 h. After 24 h of drug treatment, 20 µL of MTT solution at 5 mg/mL was added and incubated for 4 h. Dimethyl sulfoxide (DMSO) in volume of 100 µL is added into each well to dissolve the purple formazan formed. The colorimetric assay is measured and recorded at absorbance of 570 nm.

[2] = tested on: human prostate cancer cell line PC3; assay: MTT cell viability assay, PC3; assay type: cell-based; conditions: 24 h treatment
Method: as §1

[3] = tested on: human breast adenocarcinoma cell line MCF-7; assay: MTT cell viability assay, MCF-7; assay type: cell-based; conditions: MCF7, 24 h treatment
Method: as §1

[4] = tested on: human adenocarcinoma cell line HT-29 (colorectal cancer); assay: MTT cell viability assay, HT-29; assay type: cell-based; conditions: 24 h treatment
Method: as §1

[5] = tested on: human normal liver cell line WRL-68; assay: MTT cell viability assay, WRL68; assay type: cell-based; conditions: 24 h treatment
Method: as §1

[6] = tested on: MCF-7 (breast), A549 (lung), PC3 (prostate), HT-29 (colorectal) and WRL68 (liver); assay: MTT assay, summary over all five cell lines; assay type: cell-based, human; conditions: for IC50: Homo sapiens
Method: as §1

MCF-7 cells = assay: Multiparametric high content screening (HCS) cytotoxicity/apoptosis assay; assay type: cell-based, human
Method: The toxic effects of Cpd 1, 5, 23 and 25 at different doses on MCF-7 cells were assayed using the high content screening (HCS) KineticScan Reader (Cellomics Inc, Pittsburgh, PA, USA) with the Multiparameter Cytotoxicity Kit 3. The kit contains four fluorescent dyes, i.e., blue fluorescent Hoechst 33342, membrane permeability, mitochondrial membrane potential, and cytochrome c dyes. They respectively detect changes in nuclear morphology (nuclear condensation), membrane permeability, mitochondrial membrane potential and expression of cytochrome c. The multiparametric apoptosis kit quantifies three fundamental parameters related to the process of apoptosis, i.e., nuclear condensation detected by the blue fluorescent nuclear dye, Hoechst 33342, cell permeability detected by permeability dye, mitochondrial damage detected by mitochondrial membrane potential dye and cytochrome c release by DyLight 649 Conjugates. Following treatment with different concentrations of compounds 1, 23, 25 and 5 as mentioned before, the fixation and staining for imaging analysis of the MCF-7 cells were performed according to the manufacturer’s instructions. […] Plates were analyzed using a Thermo Scientific ArrayScanHVTI HCS Reader (Cellomics Inc, Pittsburgh, PA, USA). This is a computerized automated fluorescence imaging microscope that automatically identifies stained cells and measures the intensity and distribution of fluorescence in individual cells. Images for each fluoroprobe were acquired at different channels using suitable filters with 20x objective at fixed exposure time. The Cell Health Profiling BioApplication software was used for image acquisitions and analysis. For each well, at least 25 fields, corresponding to at least 500 cells were automatically acquired and analyzed. All experiments were performed in triplicates. Cell average intensity (Mean) under the modified object mask within selected range in each channel was used as assay indicator, and reported as average fluorescence intensity.

caspase-8 in MCF-7 cells = assay: Caspase-Glo-8 activity; assay type: cell-based, human; conditions: MCF-7, 24 h, highest concentrations (6 µg/mL; 25: 4 µg/mL); control printed 50892 RLU; p < 0.05
Method: Due to the observation of significant cytotoxicity of selected compounds towards MCF-7 cells, the following analyses were done on them only. Cells were treated with compound 1 (1A- 3 µg/mL; 1B- 6 µg/mL), 23 (23A- 3 µg/mL; 23B- 6 µg/mL), 25 (25A- 2 µg/mL; 25B- 4 µg/mL) and 5 (5A- 3 µg/mL; 5B- 6 µg/mL).
Activity of cellular caspases was measured using the Caspase-Glo-9, Caspase-Glo-3/7 and Caspase-Glo-8 assay reagents (Promega), according to the manufacturer's instructions. The assays provide a luminogenic caspase-3/caspase-7 or caspase-8 or caspase-9 substrate, respectively, in a buffer system optimized for caspase activity measurement in cell lysates. The luciferase signal generated is proportional to the amount of caspase activity present. MCF-7 cells have no caspase-3 activity due to functional deletion of the CASP-3 gene. Therefore, the activity measured in this test is that of caspase-7. Briefly, cells were plated in opaque 96-well plates in triplicate and treated with […]. After 24 h treatment with compounds 1, 23, 25 and 5 as mentioned before, the assay reagents were added to the plates at room temperature and incubated for 60 min, and the luminescence was measured using a plate reader. All assays were done in triplicate, and means ± SD were calculated for each condition.

[7] = all five cell lines, MTT, read-out: IC50 in all cell lines
[8] = all cell lines except for the A549 cell line, MTT, read-out: IC50 in all cell lines except A549
[9] = MCF-7, compounds 2-6 µg/mL, tamoxifen 0.04 µg/mL, vs control

SMILES	IC50 [1] [µg/mL]	IC50 [2] [µg/mL]	IC50 [3] [µg/mL]	IC50 [4] [µg/mL]	melting point [°C]	IC50 [6, 7] [µg/mL]	IC50 [6, 8] [µg/mL]	IC50 [5] [µg/mL]	cytotoxic effect in words ([6]; all cell lines, MTT)	cytotoxic effect in words [6]	cell (membrane) permeability (MCF-7 cells; [9])	cytochrome c release (MCF-7 cells; [9])	mitochondrial membrane potential (MCF-7 cells; [9])	total nuclear intensity (Hoechst 33342 nuclear chromatin staining) (MCF-7 cells; [9])	cell loss (MCF-7 cells; MCF-7, compounds 2-6 µg/mL, data not shown)	apoptosis in MCF-7 cells (MCF-7 cells; shown by multiparameter cytotoxicity assay and caspase-3/7, -8, -9 activities, p < 0.05)	caspase-8 activity at highest concentration (caspase-8 in MCF-7 cells)
O=C(/C=C/c1ccccc1Cl)c1ccc(O)cc1 [Compound 6, 3-(2-Chlorophenyl)-(4-hydroxyphenyl)-propenone]	25.2 ± 1.21 (≈ 97.5 µM)	11 ± 1.8 (≈ 42.5 µM)	10 ± 1.4 (≈ 38.7 µM)	15.5 (≈ 60 µM)	–	–	–	13.2 ± 1.3 (≈ 51.1 µM)	–	–	–	–	–	–	–	–	–
COc1ccc(C(=O)/C=C/c2ccccc2Cl)cc1 [Compound 8, 3-(2-Chlorophenyl)-1-(4-methoxy-phenyl)propenone]	> 100	> 100	> 100	> 100	–	–	–	> 100	–	low cytotoxic effects	–	–	–	–	–	–	–
Cc1cccc(/C=C/C(=O)c2ccc(O)cc2)c1 [Compound 10, 1-(4-Hydroxyphenyl)-3-m-tolylpropenone]	19.7 ± 1.22 (≈ 82.6 µM)	13.7 ± 1.1 (≈ 57.5 µM)	8.34 ± 0.472 (≈ 35 µM)	12.1 ± 3 (≈ 50.8 µM)	–	< 20	–	13.4 ± 2.09 (≈ 56.4 µM)	–	high cytotoxicity	–	–	–	–	–	–	–
Cc1ccc(C(=O)/C=C/c2cccc(C)c2)cc1 [Compound 11, 3-m-Tolyl-1-p-tolylpropenone]	24.9 ± 1.9 (≈ 105 µM)	8.73 ± 0.21 (≈ 36.9 µM)	10.2 ± 1.89 (≈ 43 µM)	16.3 ± 1.9 (≈ 69 µM)	–	–	< 20	13.9 ± 1.3 (≈ 59 µM)	–	–	–	–	–	–	–	–	–
COc1ccc(C(=O)/C=C/c2cccc(C)c2)cc1 [Compound 12, 1-(4-Methoxyphenyl)-3-m-tolylpropenone]	31.8 ± 1.5 (≈ 126 µM)	9.87 ± 0.71 (≈ 39.1 µM)	9.53 ± 1.99 (≈ 37.8 µM)	15.8 ± 2.1 (≈ 62.5 µM)	74 to 75	–	< 20	11.1 ± 1.8 (≈ 44.1 µM)	–	–	–	–	–	–	–	–	–
COc1ccc(/C=C/C(=O)c2ccccc2)cc1 [Compound 13, 3-(4-Methoxyphenyl)-1-phenylpropenone]	32.6 ± 2.5 (≈ 137 µM)	12.1 ± 0.99 (≈ 50.7 µM)	11.62 ± 0.101 (≈ 48.8 µM)	22.8 ± 2.3 (≈ 95.6 µM)	–	–	–	21.5 ± 1.7 (≈ 90.1 µM)	–	–	–	–	–	–	–	–	–
CN(C)c1ccc(/C=C/C(=O)c2ccc(O)cc2)cc1 [Compound 18, 3-(4-Dimethylaminophenyl)-1-(4-hydroxy-phenyl)-propenone]	> 100	> 100	> 100	> 100	–	–	–	> 100	low cytotoxic effects	–	–	–	–	–	–	–	–
O=C(/C=C/c1ccccc1O)c1ccc(O)cc1 [Compound 22, 3-(2-Hydroxyphenyl)-1-(4-hydroxyphenyl)-propenone]	> 100	> 100	> 100	> 100	287 to 289	–	–	> 100	–	low cytotoxic effects	–	–	–	–	–	–	–
CC/C(=C(\c1ccccc1)c1ccc(OCCN(C)C)cc1)c1ccccc1 [tamoxifen, reference compound]	–	–	–	–	–	–	–	–	–	–	–	found to increase	reduction in mitochondrial membrane potential dye retention	increase in nuclear chromatin staining	–	–	–

Further lines, with some results ahead:

IC50 [1] [µg/mL]	IC50 [2] [µg/mL]	IC50 [3] [µg/mL]	IC50 [4] [µg/mL]	melting point [°C]	IC50 [6, 7] [µg/mL]	IC50 [6, 8] [µg/mL]	SMILES	IC50 [5] [µg/mL]	cytotoxic effect in words ([6]; all cell lines, MTT)	cytotoxic effect in words [6]	cell (membrane) permeability (MCF-7 cells; [9])	cytochrome c release (MCF-7 cells; [9])	mitochondrial membrane potential (MCF-7 cells; [9])	total nuclear intensity (Hoechst 33342 nuclear chromatin staining) (MCF-7 cells; [9])	cell loss (MCF-7 cells; MCF-7, compounds 2-6 µg/mL, data not shown)	apoptosis in MCF-7 cells (MCF-7 cells; shown by multiparameter cytotoxicity assay and caspase-3/7, -8, -9 activities, p < 0.05)	caspase-8 activity at highest concentration (caspase-8 in MCF-7 cells)
> 100	> 100	> 100	> 100	–	–	–	O=C(/C=C/c1ccccc1)c1ccc(O)cc1 [Compound 2, 1-(4-Hydroxyphenyl)-3-phenylpropenone]	> 100	low cytotoxic effects	–	–	–	–	–	–	–	–
36.6 ± 1.76 (≈ 165 µM)	17.3 ± 1.1 (≈ 77.8 µM)	13.6 ± 1.01 (≈ 61.3 µM)	19.1 ± 1 (≈ 85.9 µM)	–	–	–	Cc1ccc(C(=O)/C=C/c2ccccc2)cc1 [Compound 3, 3-Phenyl-1-p-tolylpropenone]	21.3 ± 3.01 (≈ 96 µM)	–	–	–	–	–	–	–	–	–
77 ± 2.1 (≈ 323 µM)	21.1 ± 1.24 (≈ 88.7 µM)	19.1 ± 1 (≈ 80.4 µM)	37.3 ± 2.81 (≈ 156 µM)	–	–	–	COc1ccc(C(=O)/C=C/c2ccccc2)cc1 [Compound 4, 1-(4-Methoxyphenyl)-3-phenylpropenone]	57.3 ± 3.8 (≈ 240 µM)	–	–	–	–	–	–	–	–	–
> 100	> 100	> 100	> 100	50 to 51	–	–	Cc1ccc(C(=O)/C=C/c2ccccc2Cl)cc1 [Compound 7, 3-(2-Chlorophenyl)-1-P-tolylpropenone]	> 100	–	low cytotoxic effects	–	–	–	–	–	–	–
24.7 ± 2 (≈ 111 µM)	9.4 ± 1.9 (≈ 42.3 µM)	9.34 ± 0.56 (≈ 42 µM)	19 ± 1.5 (≈ 85.3 µM)	68 to 70	–	–	Cc1cccc(/C=C/C(=O)c2ccccc2)c1 [Compound 9, 1-Phenyl-3-m-tolylpropenone]	9.78 ± 1.01 (≈ 44 µM)	–	–	–	–	–	–	–	–	–
> 100	> 100	> 100	> 100	–	–	–	COc1ccc(/C=C/C(=O)c2ccc(O)cc2)cc1 [Compound 14, 1-(4-Hydroxyphenyl)-3-(4-methoxyphenyl)-propenone]	> 100	–	low cytotoxic effects	–	–	–	–	–	–	–
> 100	43.3 ± 4.01 (≈ 171 µM)	32.4 ± 1.88 (≈ 128 µM)	29.6 ± 2.8 (≈ 117 µM)	–	–	–	COc1ccc(/C=C/C(=O)c2ccc(C)cc2)cc1 [Compound 15, 3-(4-Methoxyphenyl)-1-p-tolylpropenone]	50.9 ± 3.51 (≈ 202 µM)	–	–	–	–	–	–	–	–	–
> 100	> 100	41.4 ± 1.91 (≈ 154 µM)	67.1 ± 4.1 (≈ 250 µM)	–	–	–	COc1ccc(/C=C/C(=O)c2ccc(OC)cc2)cc1 [Compound 16, 1,3-Bis-(4-Methoxyphenyl)-propenone]	60.8 ± 4.22 (≈ 227 µM)	–	–	–	–	–	–	–	–	–
> 100	> 100	99.3 ± 6.16 (≈ 395 µM)	64.3 ± 5.02 (≈ 256 µM)	–	–	–	CN(C)c1ccc(/C=C/C(=O)c2ccccc2)cc1 [Compound 17, 3-(4-Dimethylaminophenyl)-1-phenyl-propenone]	> 100	–	–	–	–	–	–	–	–	–
58.5 ± 3.2 (≈ 221 µM)	> 100	57.3 ± 3.1 (≈ 216 µM)	69.5 ± 4.23 (≈ 262 µM)	124 to 125	–	–	Cc1ccc(C(=O)/C=C/c2ccc(N(C)C)cc2)cc1 [Compound 19, 3-(4-Dimethylaminophenyl)-1-p-tolyl-propenone]	39.8 ± 3.9 (≈ 150 µM)	–	–	–	–	–	–	–	–	–
78.8 ± 4.4 (≈ 280 µM)	> 100	> 100	> 100	–	–	–	COc1ccc(C(=O)/C=C/c2ccc(N(C)C)cc2)cc1 [Compound 20, 3-(4-Dimethylaminophenyl)-1-(4-methoxy-phenyl)-propenone]	> 100	–	low cytotoxic effects	–	–	–	–	–	–	–
22.6 ± 1.1 (≈ 101 µM)	11.1 ± 0.4 (≈ 49.4 µM)	9.35 ± 1.2 (≈ 41.7 µM)	19.8 ± 2.01 (≈ 88.5 µM)	–	–	< 20	O=C(/C=C/c1ccccc1O)c1ccccc1 [Compound 21, 3-(2-Hydroxyphenyl)-1-phenylpropenone]	17 ± 1.7 (≈ 75.9 µM)	–	–	–	–	–	–	–	–	–
14.2 ± 1 (≈ 55.7 µM)	5.58 ± 0.2 (≈ 22 µM)	7.15 ± 0.4 (≈ 28.1 µM)	11.4 ± 1 (≈ 44.9 µM)	–	< 20	–	COc1ccc(C(=O)/C=C/c2ccccc2O)cc1 [Compound 24, 3-(2-Hydroxyphenyl)-1-(4-methoxyphenyl)-propenone]	8.72 ± 1 (≈ 34.3 µM)	–	high cytotoxicity	–	–	–	–	–	–	–
14.5 ± 0.2 (≈ 59.7 µM)	6.94 ± 0.61 (≈ 28.6 µM)	5.25 ± 0.67 (≈ 21.6 µM)	7.77 ± 1.1 (≈ 32 µM)	–	< 20	–	O=C(/C=C/c1cccc(Cl)c1)c1ccccc1 [Compound 25, 3-(3-Chlorophenyl)-1-phenylpropenone]	7.72 ± 1.6 (≈ 31.8 µM)	–	high cytotoxicity	increased cell permeability	cytochrome c release from mitochondria	loss of mitochondrial membrane potential	increased total nuclear intensity	statistically significant cell loss	capable in eliciting apoptosis	18,356 RLU
